According to US8084027B2, “Combinations comprising a CDK inhibitor and a growth factor antibody or anti-mitotic” (Nerviano Medical Sciences S.r.l., priority 2006, dated 2011):
Where two headings read alike, the source gives them in different places.

What was measured:
[1] = test system: DU145 prostate carcinoma cells; test: In vivo antitumor efficacy using the monoclonal antibody (DU145 xenograft, tumor growth delay); settings: COMPOUND A 40 mg/kg oral BID; for Time to reach 1 g: DU145 s.c. in athymic mice, bevacizumab 20 mg/kg i.p. days 6, 10, 14, 18, in combination COMPOUND A given between bevacizumab treatments; for T-C: delay vs control to reach tumor size 1 g
Experimental: Balb, Nu\Nu male mice, from Harlan (Italy), were maintained in cages with paper filter cover, food and bedding sterilized and water acidified. 2.5×10^6 DU145 prostate carcinoma cells (from the American Type Culture Collection) were injected subcutaneously in athymic mice. […] The treatment started 6 days later tumor cell injection when tumors were palpable. Bevacizumab was prepared immediately before treatment, while COMPOUND A was prepared every 3 days, on the basis of known stability of the compound.
COMPOUND A was administrated by oral route in a volume of 10 ml/kg at the dose of 40 mg/kg twice a day (BID) for 12 days (days 6 to 17). Bevacizumab was administered intraperitoneally in a volume of 10 ml/kg at the dose of 20 mg/kg on days 6, 10, 14, 18 from the days of tumor cells injection. When combined, COMPOUND A was administered in the interval between the bevacizumab treatments at days 7, 8, 9, 11, 12, 13, 15, 16, 17, 19, 20 and 21. Tumor growth and body weight were measured every 3 days. Tumor growth was assessed by caliper. The two diameters were recorded and the tumor weight was calculated according the following formula: length (mm)×width^2/2. The effect of the antitumor treatment was evaluated as the delay in the onset of an exponential growth of the tumor (see for references, Anticancer drugs 7:437-60, 1996). This delay (T-C value) was defined as the difference of time (in days) required for the treatment group (T) and the control group (C) tumors to reach a predetermined size (1 g). Toxicity was evaluated on the basis of body weigh reduction.

[2] = test system: DU145 prostate carcinoma cells; settings: Compound A 40 mg/kg oral BID; for Time to reach 1 g: DU145 s.c. in athymic mice, docetaxel 10 mg/kg i.v. days 10, 14, 18, in combination Compound A given between docetaxel treatments; for T-C: delay vs control to reach tumor size 1 g, docetaxel 10 mg/kg i.v.
Experimental: Balb, Nu\Nu male mice, from Harlan (Italy), were maintained in cages with paper filter cover, food and bedding sterilized and water acidified. 2.5×10^6 DU145 prostate carcinoma cells (from the American Type Culture Collection) were injected subcutaneously in athymic mice.
The treatment started 10 days later tumor cells injection when tumors were palpable. Docetaxel was prepared immediately before treatment, while COMPOUND A was prepared every 3 days, on the basis of known stability of the compound.
COMPOUND A was administered by oral route in a volume of 10 ml/kg at the doses of 40 mg/kg twice a day (BID) for 9 days (days 10 to 18). Docetaxel was administered by intravenous route in a volume of 10 ml/kg at the dose of 10 mg/kg on days 10, 14, 18 from the days of cell injection. When combined, COMPOUND A was administered in the interval between the docetaxel treatments at days 11, 12, 13, 15, 16, 17, 19, 20 and 21. Tumor growth and body weight were measured every 3 days. Tumor growth was assessed by caliper. The two diameters were recorded and the tumor weight was calculated according to the following formula: length (mm)×width^2/2. The effect of the antitumor treatment was evaluated as the delay in the onset of an exponential growth of the tumor (see for references, Anticancer drugs 7:437-60, 1996). This delay (T-C value) was defined as the difference of time (in days) required for the treatment group (T) and the control group (C) tumors to reach a predetermined size (1 g). Toxicity was evaluated on the basis of body weight reduction.

Compound: Bevacizumab: antibody to vascular endothelial growth factor
- Time to reach 1 g [1]: 27.93 ± 3.44 days
- T-C ([1]; bevacizumab 20 mg/kg i.p.): 12.43 days
- Toxicity ([1]; evaluated on the basis of body weight reduction, bevacizumab 20 mg/kg i.p.): 0/8

Compound: CNC(=O)c1nn(C)c2c1C(C)(C)Cc1cnc(Nc3ccc(N4CCN(C)CC4)cc3)nc1-2 [COMPOUND A, 8-[4-(4-methyl-piperazin-1-yl)-phenylamino]-1,4,4-trimethyl-4,5-dihydro-1H-pyrazolo[4,3-h]quinazoline-3-carboxylic acid methylamide]
- Time to reach 1 g [2]: 27.4 ± 2.7 days
- T-C [2]: 10.21 days
- Time to reach 1 g [1]: 32.38 ± 2.7 days
- T-C ([1]; bevacizumab 20 mg/kg i.p.): 16.88 days

Compound: CC(=O)O[C@@]12CO[C@@H]1C[C@H](O)[C@@]1(C)C(=O)[C@H](O)C3=C(C)[C@@H](OC(=O)[C@H](O)[C@@H](NC(=O)OC(C)(C)C)c4ccccc4)C[C@@](O)([C@@H](OC(=O)c4ccccc4)[C@H]21)C3(C)C [Docetaxel]
- Time to reach 1 g [2]: 22.25 ± 2.98 days
- T-C [2]: 5.05 days
